Common to all, as to assay: NCI-60 cell line screen, 48 h
Assay [1] deals with 786-0 renal.
The test system of assay [2] is A549 NSCLC.
For assay [3], the system named is K-562 leukemia.
The test system of assay [4] is NCI-H226 lung.
Assay [5] deals with OVCAR-4 ovarian.
Assay [6] deals with OVCAR-8 ovarian.
Assay [7] concerns SNB-19 CNS.
Assay [8] deals with TK-10 renal.
Assay [9] concerns UACC-257 melanoma.

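Each compound was tested at five concentrations against cells in 96-well plates for 48 hours. GI50 is the concentration that inhibits growth by half. TGI: total growth inhibition.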

On to `O=C1c2ccccc2C2CCC1c1ccccc12` (configuration not stated), for which the TGI in assay [1] was > 100 µM; in assay [2], > 100 µM; in [3] it was > 100 µM; in assay [4], > 100 µM; in [5], 76.1 µM; in assay [6] it was > 100 µM. Besides, the TGI is > 100 µM in assay [7], 93.9 µM in assay [8] and 76.6 µM in assay [9].

With `CN(/N=C\c1ccnc2ccccc12)c1ccc([N+](=O)[O-])cc1`, the TGI in assay [1], in assay [2], in assay [3], in [4], in assay [6] and in [7] was > 100 µM throughout. Further, the TGI in assay [8] and in assay [9] was > 100 µM in each case.

In the case of `CC(=O)[CH-]C(=O)c1ccccc1.CC(=O)[CH-]C(=O)c1ccccc1.CC(=O)[CH-]C(=O)c1ccccc1.[Nd+3].[OH3+]`, the GI50 was 37 µM in assay [1]; > 100 µM in [2]; 42.6 µM in assay [3]; > 100 µM in assay [4]; 93.8 µM in assay [5]; 27.2 µM in [6]. Besides, the GI50 in assay [7] is > 100 µM; in assay [8], > 100 µM; in assay [9], 52.1 µM. Moreover, the TGI in [1], in [2], in assay [3], in assay [4], in [5] and in [6] was > 100 µM throughout. Further, the TGI in assay [7], in assay [8] and in assay [9] was > 100 µM in each case.

Consider `COC(=O)[C@@H]1Cc2c([nH]c3ccccc23)[C@H](c2ccccc2)N1`, for which the TGI in assay [1], in [2], in [3], in assay [4], in assay [5] and in [6] was > 100 µM in each case. In addition, the TGI in assay [7], in assay [8] and in assay [9] was > 100 µM in each case.

As for `Clc1cccc(C2N3CCCCC3[C@@H]3c4[nH]c5ccccc5c4CCN23)c1` (some centres not stated), the TGI is > 100 µM in [1]; > 100 µM in assay [2]; 65.8 µM in assay [3]; > 100 µM in assay [5]; > 100 µM in assay [6]; > 100 µM in assay [7]. Besides, the TGI in [8] is > 100 µM; in assay [9] it was 98.2 µM.

As to `O=C(Nc1ccc(Cl)c(Cl)c1)C(=O)C(C(=O)c1ccccc1-c1ccccc1)C1OC(=O)c2ccccc21` (configuration not stated), the TGI in [1] is 25.6 µM; in assay [2] it was 63.2 µM; in assay [3], > 100 µM; in assay [4] it was 15.1 µM; in [6], 84.5 µM; in assay [8], 43.7 µM. Also, the TGI in assay [9] is > 100 µM.

Consider `Nc1c(Cl)ncnc1NCCCCCCCCCCCCNc1ncnc(Cl)c1N`, for which the TGI is 66.1 µM in assay [1]; > 100 µM in assay [3]; > 100 µM in [5]; > 100 µM in [6]; > 100 µM in assay [7]; > 100 µM in assay [8]. This molecule gave a TGI in assay [9] of 4.21 µM.

Take `O=C(Nc1ccc(Cl)cc1Cl)OC(Cn1cncn1)c1ccc(Cl)cc1Cl` (configuration not stated): the TGI in assay [1] is 33.5 µM; in assay [2], 33 µM; in [3], > 100 µM; in [4], 39 µM; in assay [5] it was 28 µM; in assay [6], 31.8 µM. Further, the TGI in [7] turned out to be 30.8 µM; in assay [9], 30.9 µM.

Take `COC(=O)[C@@]12CC(C(C)C)[C@H]3CC(C(=O)C=C1OC)[C@H]32` (some centres not stated): the TGI in [1], in [2], in assay [3], in [5], in assay [6] and in assay [7] was > 100 µM throughout. In addition, the TGI in assay [8] and in [9] was > 100 µM throughout.

With `CNS(=O)(=O)NNS(=O)(=O)c1ccc(OC)cc1`, the TGI in assay [1], in assay [2], in assay [3], in assay [5], in [6] and in [7] was > 100 µM throughout. Further, the TGI in [9] was > 100 µM.

Consider `CN1CCN(C(=O)COc2ccc(/C=C3\CC4C5CC=C6CC(Cl)CCC6(C)C5CCC4(C)C3=O)cc2)CC1` (configuration not stated), for which the GI50 in assay [1] is 88.1 µM; in [2], > 100 µM; in assay [3], 2.61 µM; in [4], > 100 µM; in assay [5] it was > 100 µM; in assay [6] it was > 100 µM. Moreover, the GI50 is > 100 µM in assay [7] and 27.4 µM in assay [8]. Besides, the TGI in assay [1], in assay [2], in assay [3], in [4], in [5] and in [6] was > 100 µM each time. The TGI in [7] and in assay [8] was > 100 µM each time.

Take `CCCCCCCCCC[C@H](O)[C@H](O)CC[C@@H](O)[C@H]1CC[C@@H]([C@H]2CC[C@H](CCCCCCC[C@@H](O)CC3=C[C@H](C)OC3=O)O2)O1`: the GI50 in assay [1] was 30.9 µM; in [2], 20.7 µM; in assay [4], 21.2 µM; in assay [7] it was 29.5 µM; in assay [8], 36.3 µM; in assay [9], 9.51 µM. For the same molecule, the TGI was > 100 µM in [1]; > 100 µM in assay [2]; 78 µM in assay [5]; > 100 µM in assay [8]; > 100 µM in [9].

For the molecule `Cc1cc(C)c(-c2c(N)cc(Br)cc2Br)c(N)c1`, the GI50 is 7.75 µM in assay [1]; 5.62 µM in [2]; 11.8 µM in assay [4]; 8.43 µM in assay [5]; 10.2 µM in [6]; 6.68 µM in [7]. The GI50 in [8] is 7.17 µM; in assay [9], 5.84 µM. Besides, the TGI in assay [1] is 21.6 µM; in assay [2], 19.6 µM; in [4] it was 26.5 µM; in [5], 22.3 µM; in [6], 31.7 µM; in assay [7] it was 26.4 µM. The TGI was 20.5 µM in assay [8] and 22.1 µM in assay [9].

The record behind these values is PubChem BioAssay (NCI).
